Positions count from the first letter of the chain named. Names may count otherwise.
B1: Thermotoga maritima Rad50^NBD (residues 1-190 and 686-852 joined by the linker GGAGGAGG) (domain or fragment)
chain: MRPERLTVRNFLGLKNVDIEFQSGITVVEGPNGAGKSSLFEAISFALFGNGIRYPNSYDYVNRNAVDGTARLVFQFERGGKRYEIIREINALQRKHNAKLSEILENGKKAAIAAKPTSVKQEVEKILGIEHRTFIRTVFLPQGEIDKLLISPPSEITEIISDVFQSKETLEKLEKLLKEKMKKLENEISSGGAGGAGGSLEKKLKEMSDEYNNLDLLRKYLFDKSNFSRYFTGRVLEAVLKRTKAYLDILTNGRFDIDFDDEKGGFIIKDWGIERPARGLSGGERALISISLAMSLAEVASGRLDAFFIDEGFSSLDTENKEKIASVLKELERLNKVIVFITHDREFSEAFDRKLRITGGVVVNE
B2: Thermotoga maritima Mre11 S110C (enzyme, UniProt Q9X1X0 7-385, looked up)
chain: MKILHTSDWHLGVTSWTSSRPVDRREELKKALDKVVEEAEKREVDLILLTGDLLHSRNNPSVVALHDLLDYLKRMMRTAPVVVLPGNHDWKGLKLFGNFVTSICSDITFVMSFEPVDVEAKRGQKVRILPFPYPDESEALRKNEGDFRFFLESRLNKLYEEALKKEDFAIFMGHFTVEGLAGYAGIEQGREIIINRALIPSVVDYAALGHIHSFREIQKQPLTIYPGSLIRIDFGEEADEKGAVFVELKRGEPPRYERIDASPLPLKTLYYKKIDTSALKSIRDFCRNFPGYVRVVYEEDSGILPDLMGEIDNLVKIERKSRREIEEVLRESPEEFKEELDKLDYFELFKEYLKKREENHEKLLKILDELLDEVKKSEA
B3: Thermotoga maritima Mre11 (residues L7M-385) (enzyme, UniProt Q9X1X0 7-385, looked up)
chain: B2 chain with C104S

Columns and labels:
[1] = target: T1, TmMre11:Rad50^NBD (TmMR^NBD catalytic head) (Thermotoga maritima, UniProt Q9X1X1, DEL191-685); assay: SPR and EMSA, nucleotide-stimulated DNA binding; type: biochemical; conditions: dsDNA 50mer, hairpin DNA
T1 sequence (Q9X1X0 7-385 L7M, one chain of several): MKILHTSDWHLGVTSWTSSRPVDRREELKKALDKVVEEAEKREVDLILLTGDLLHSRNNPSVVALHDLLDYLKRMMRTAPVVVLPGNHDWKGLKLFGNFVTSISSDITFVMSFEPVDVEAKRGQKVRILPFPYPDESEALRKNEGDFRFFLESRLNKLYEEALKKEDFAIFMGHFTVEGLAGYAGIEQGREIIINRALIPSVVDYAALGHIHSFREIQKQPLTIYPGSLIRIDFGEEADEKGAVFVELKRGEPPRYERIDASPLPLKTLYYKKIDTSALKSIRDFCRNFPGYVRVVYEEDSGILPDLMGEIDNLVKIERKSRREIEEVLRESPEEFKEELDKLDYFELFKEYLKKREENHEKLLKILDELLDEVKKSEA

[2] = target: TmMre11:Rad50^NBD (TmMR^NBD catalytic head) (Thermotoga maritima, UniProt Q9X1X1, DEL191-685/D804C/H830C, form not given); assay: ATP-induced disulfide bond formation between Rad50 NBDs; type: binding; conditions: Cu2+
Chain of TmMre11:Rad50^NBD (TmMR^NBD catalytic head) (Thermotoga maritima, UniProt Q9X1X1, DEL191-685/D804C/H830C, form not given) (Q9X1X0 7-385 L7M/F291S, form open, one chain of several, further chain): as the sequence (Q9X1X0 7-385 L7M, one chain of several) above, with F285S counted along it
Chain of TmMre11:Rad50^NBD (TmMR^NBD catalytic head) (Thermotoga maritima, UniProt Q9X1X1, DEL191-685/D804C/H830C, form not given) (Q9X1X1 686-852 D804C/H830C, form open, one chain of several): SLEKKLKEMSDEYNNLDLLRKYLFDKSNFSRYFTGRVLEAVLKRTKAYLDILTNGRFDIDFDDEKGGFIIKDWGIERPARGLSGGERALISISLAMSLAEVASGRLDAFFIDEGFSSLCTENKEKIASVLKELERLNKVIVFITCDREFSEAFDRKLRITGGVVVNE

[3] = target: TmMre11:Rad50^NBD (TmMR^NBD catalytic head) (Thermotoga maritima, UniProt Q9X1X1, DEL191-685/D804C/H830C); assay: as above; type: binding; conditions: Cu2+
Chain of TmMre11:Rad50^NBD (TmMR^NBD catalytic head) (Thermotoga maritima, UniProt Q9X1X1, DEL191-685/D804C/H830C) (Q9X1X1 686-852 D804C/H830C, one chain of several): as the sequence (Q9X1X1 686-852 D804C/H830C, form open, one chain of several) above
Chain of TmMre11:Rad50^NBD (TmMR^NBD catalytic head) (Thermotoga maritima, UniProt Q9X1X1, DEL191-685/D804C/H830C) (Q9X1X0 7-385 L7M, one chain of several, further chain): as the sequence (Q9X1X0 7-385 L7M, one chain of several) above

[4] = target: TmMre11:Rad50^NBD (TmMR^NBD catalytic head) (Thermotoga maritima, UniProt Q9X1X1, N64C/DEL191-685/I760C); assay: ATP-dependent BMOE crosslinking of Rad50 NBDs, SDS PAGE; type: binding
Chain of TmMre11:Rad50^NBD (TmMR^NBD catalytic head) (Thermotoga maritima, UniProt Q9X1X1, N64C/DEL191-685/I760C) (Q9X1X0 7-385 L7M): as the sequence (Q9X1X0 7-385 L7M, one chain of several) above
Chain of TmMre11:Rad50^NBD (TmMR^NBD catalytic head) (Thermotoga maritima, UniProt Q9X1X1, N64C/DEL191-685/I760C) (Q9X1X1 1-190 N64C): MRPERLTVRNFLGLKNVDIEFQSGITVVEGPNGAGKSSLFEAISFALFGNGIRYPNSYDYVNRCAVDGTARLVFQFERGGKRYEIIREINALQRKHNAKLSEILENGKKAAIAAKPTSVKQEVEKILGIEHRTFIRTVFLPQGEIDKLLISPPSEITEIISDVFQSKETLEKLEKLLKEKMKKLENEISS
Chain of TmMre11:Rad50^NBD (TmMR^NBD catalytic head) (Thermotoga maritima, UniProt Q9X1X1, N64C/DEL191-685/I760C) (Q9X1X1 686-852 I760C): as the sequence (Q9X1X1 686-852 D804C/H830C, form open, one chain of several) above, with I75C, C119D, C145H counted along it

[5] = target: TmMre11:Rad50^NBD (TmMR^NBD catalytic head) (Thermotoga maritima, UniProt Q9X1X1, DEL191-685, form not given); assay: reduced BMOE crosslinking of Mre11 dimer, SDS PAGE; type: binding; conditions: nucleotide binds Rad50; read-out at Mre11 dimer interface
[6] = target: T1, TmMre11:Rad50^NBD (TmMR^NBD catalytic head); assay: ATPase activity; type: biochemical
[7] = target: T1, TmMre11:Rad50^NBD (TmMR^NBD catalytic head); assay: SAXS, compaction of catalytic head; type: binding; conditions: 50 mM Tris pH 7.7, 100 mM NaCl, 5 mM MnCl2, 10 mM MgCl2
[8] = target: B3; assay: crystal structure
co-purification = target: the molecule itself; assay: co-purification
crystal structure = target: the molecule itself; assay: crystal structure

Molecule: Nc1ncnc2c1ncn2[C@@H]1O[C@H](COP(=O)(O)OP(=O)(O)NP(=O)(O)O)[C@@H](O)[C@H]1O [AMPPNP]
SPR and EMSA, nucleotide-stimulated DNA binding [1]: SPR showed a strong effect of AMPPNP on dsDNA and hairpin DNA binding by TmMre11:Rad50^NBD

Molecule: Nc1ncnc2c1ncn2[C@@H]1O[C@H](COP(=O)(O)OP(=O)(O)OP(=O)(O)O)[C@@H](O)[C@H]1O [ATP]
ATP-induced disulfide bond formation between Rad50 NBDs [2]: we can now efficiently crosslink the NBDs by disulfide bond formation
ATP-induced disulfide bond formation between Rad50 NBDs [3]: ATP induced formation of a disulfide bond between D804C and H830C
ATP-dependent BMOE crosslinking of Rad50 NBDs, SDS PAGE [4]: crosslink the two NBDs in the presence of ATP, but not in the absence of ATP
reduced BMOE crosslinking of Mre11 dimer, SDS PAGE [5]: ATP, AMPPNP and ATPγS reduced the ability of BMOE to crosslink Mre11 S110C dimers
ATPase activity [6]: Both proteins form a stoichiometric complex with ATPase as well as DNA binding activity

Molecule: Nc1ncnc2c1ncn2[C@@H]1O[C@H](COP(=O)(O)OP(=O)(O)OP(O)(O)=S)[C@@H](O)[C@H]1O [ATPγS]
SAXS, compaction of catalytic head (radius of gyration) [7]: Adding ATPγS indeed resulted in a substantial decrease of the radius of gyration (Rg)

Molecule: B1
binding result [8]: binds

Molecule: B2
binding result (co-purification): binds

Molecule: B3
stoichiometry N (crystal structure): 2
